“And” between values parts separate entries of the source, which are not always exact repeats. Equal values may be shown once.
Key:
MRC-5 cells = assay: SRB assay, MRC-5 cells; type: cell-based; conditions: Homo sapiens, MRC5; 72 h after treatment, SRB; read-out: IC50 MRC
Description: Two human breast cancer cell lines, MDA-MB-231 (HTB-26) and MDA-MB-468 (HTB-132), human cervical cancer cell line HeLa (CCL-2), and MRC-5 (CCL-171) fibroblasts were purchased from the American Type Culture Collection (ATCC, Manassas, VA, USA). All cell lines were cultured in Dulbecco’s Modified Eagle’s Medium (DMEM) with 4500 mg/L glucose and L-glutamine (Capricorn Scientific, Ebsdorfergrund, Germany), supplemented with 10% foetal bovine serum (PAN-Biotech, Aidenbach, Germany), 10,000 U/mL penicillin, and 10 mg/mL streptomycin solution (Capricorn Scientific) under standard conditions at 37 °C in a humidified 5% CO2 atmosphere (ESCO, Lifesciences Group, Singapore).
Cells were seeded on a 96-well plate (Thermo Fisher Scientific, Waltham, MA, USA) at 2 × 10^3 cells per well in DMEM medium. For the analysis of the concentration- and time-dependent effect of the analysed compounds, cell monolayers were treated 24 h after seeding with concentrations 1 × 10^−6, 1 × 10^−5, and 1 × 10^−4 M for 24, 48, or 72 h. Cell viability was detected using sulforhodamine B (SRB) assay, based on the staining of cellular proteins. The assay was performed according to the procedure described by Skehan et al.. The cells were fixed with 10% trichloroacetic acid (TCA, CARLO ERBA Reagents GmbH, Emmendingen, Germany) for 1 h at 4 °C, washed with water, and stained for 15 min with 0.4% SRB (Sigma-Aldrich Chemie GmbH, Steinheim, Germany) in 1% acetic acid. The unbound SRB dye was rinsed with 1% acetic acid, while the protein-bound dye was extracted with a 10 mM Tris base (Sigma-Aldrich). The absorbance was measured at 550 nm with a reference wavelength of 690 nm in a microplate reader (Wallac, VICTOR2 1420 Multilabel counter, PerkinElmer, Turku, Finland). The results were expressed as a percentage of the control, where the cell growth of the control is set to 100%. […] The selectivity index (SI) was determined according to the following formula:(2) SI=IC50 for fibroblast cell line/IC50 for tumour cell line […]

physchem = type: physicochemical; conditions: n-octanol/deionized water, shake flask, 25 °C, 1 × 10^−4 M, read-out: logP, experimentally obtained
Description: To measure the lipophilicity (expressed as the partition coefficient) of the synthesized compounds and their constituents, using a “shake-flask” method, a two-phase system composed of n-octanol and deionized water was used. The stock solutions of the compounds were diluted with water to the concentration of 1 × 10^−4 M, and this solution was used for further investigation. […] The concentration of the compounds was calculated from their extinction coefficient at 260 nm that was previously determined.

[1] = Metal-chelating assay, binding stoichiometry (molar ratio method), Zn2+; type: physicochemical; conditions: ethanol, 30 min, compound 5 × 10^−5 M, one ion coordinates with two molecules
Description: (§1) Binding stoichiometry was determined using the molar ratio method, with increasing concentrations of metal ions (from 0 to 1.5 × 10^−4 M) (Figures S1 and S2). Absorption spectra were collected 30 min after mixing. The change in absorption at the wavelength of maximum absorbance for the formed complex was plotted against the metal ion (M^2+ = Cu^2+, Zn^2+, and Fe^2+) to compound ratio (cM^2+/ccompound) and is presented in Figure 3. This graph allows the determination of the binding ratio between the newly synthesized compounds and metal ions. […] In contrast, the results for Fe^2+ indicate that only one Fe^2+ ion can bind to both compounds.
(§2) The metal-chelating ability of synthesized compounds in ethanol was assessed using UV/Vis spectrophotometer (Lambda 35, Perkin Elmer) recording spectra over a wavelength range of 230–600 nm in a 1 cm quartz cell. The mixture of compound at 5 × 10^−5 M of final concentration and metal ions at 1 × 10^−4 M of final concentration was incubated for 30 min at room temperature. The tested temperature was 25 °C. […]
(§3) The binding stoichiometry was assessed by adding increasing concentrations of metal ions (0–1.5 × 10^−4 M) to a fixed concentration of compound (5 × 10^−5 M) and incubating the mixture for 30 min at room temperature. The spectra were then measured as described above, and the ligand-to-metal chelation ratio in the complex was calculated.

HeLa cells = assay: SRB assay, HeLa cells; type: cell-based; conditions: for Viability of HeLa cells: % of control, concentrations 1 × 10^−6 to 1 × 10^−4 M (not assigned to the values for 2a); for IC50: Homo sapiens, HeLa, 72 h after treatment, SRB, read-out: IC50 HeLa
Description: All cell lines were cultured in Dulbecco’s Modified Eagle’s Medium (DMEM) with 4500 mg/L glucose and L-glutamine (Capricorn Scientific, Ebsdorfergrund, Germany), supplemented with 10% foetal bovine serum (PAN-Biotech, Aidenbach, Germany), 10,000 U/mL penicillin, and 10 mg/mL streptomycin solution (Capricorn Scientific) under standard conditions at 37 °C in a humidified 5% CO2 atmosphere (ESCO, Lifesciences Group, Singapore).
Cells were seeded on a 96-well plate (Thermo Fisher Scientific, Waltham, MA, USA) at 2 × 10^3 cells per well in DMEM medium. For the analysis of the concentration- and time-dependent effect of the analysed compounds, cell monolayers were treated 24 h after seeding with concentrations 1 × 10^−6, 1 × 10^−5, and 1 × 10^−4 M for 24, 48, or 72 h. Cell viability was detected using sulforhodamine B (SRB) assay, based on the staining of cellular proteins. The assay was performed according to the procedure described by Skehan et al.. The cells were fixed with 10% trichloroacetic acid (TCA, CARLO ERBA Reagents GmbH, Emmendingen, Germany) for 1 h at 4 °C, washed with water, and stained for 15 min with 0.4% SRB (Sigma-Aldrich Chemie GmbH, Steinheim, Germany) in 1% acetic acid. The unbound SRB dye was rinsed with 1% acetic acid, while the protein-bound dye was extracted with a 10 mM Tris base (Sigma-Aldrich). […] The results were expressed as a percentage of the control, where the cell growth of the control is set to 100%. […] The selectivity index (SI) was determined according to the following formula:(2) SI=IC50 for fibroblast cell line/IC50 for tumour cell line
The assay was performed two times in 4 replicates for every experimental group. The statistical significance of differences between treated and untreated cells was estimated by the independent Student’s t-test, with the level of significance set at p < 0.05.

[2] = Metal-chelating assay, binding stoichiometry (molar ratio method), Fe2+; type: physicochemical; conditions: ethanol, 30 min, compound 5 × 10^−5 M
Description: as §1, §2, §3

[3] = Metal-chelating assay, binding stoichiometry (molar ratio method), Cu2+; type: physicochemical; conditions: ethanol, 30 min, compound 5 × 10^−5 M, one ion coordinates with two molecules
Description: as §1, §2, §3

Compound	IC50 (MRC-5 cells) [µM]	logP at 30 min (physchem)	binding stoichiometry Zn^2+ [1]	Viability of HeLa cells (HeLa cells; 48 h)	Viability of HeLa cells (HeLa cells; 72 h)	IC50 (HeLa cells) [µM]	binding stoichiometry Fe^2+ (ions bound) [2]	binding stoichiometry Cu^2+ [3]
O=c1c(O)c(-c2ccc(O)c(O)c2)oc2c(CN3CCc4ccccc4C3)c(O)cc(O)c12 [Compound 2a]	55.7 ± 2.78	3.07	2	43% and 37%	35% and 29%	53.5 ± 2.67	one	2
COc1cc2c(cc1OC)CN(Cc1c(O)cc(O)c3c(=O)c(O)c(-c4ccc(O)c(O)c4)oc13)CC2 [Compound 2b]	16.6 ± 0.83	2.47	2	–	–	19.5 ± 0.97	one	2
